Reference: PMC5659721 (Journal of medicinal chemistry, 2017)

Legend:
wild-type TTR [1] = molecular target: T1, wild-type TTR (Homo sapiens, UniProt P02766); assay: Co-crystallography / X-ray diffraction analysis of TTR·ligand complexes; conditions: co-crystal structures
wild-type TTR [2] = molecular target: T1, wild-type TTR; assay: Competitive fluorescence; format: binding; conditions: 5 vs 1, 6 vs 2
TTR = TTR (Homo sapiens, UniProt P02766); assay: Reversibility of binding assessed with mass spectrometry; conditions: mass spectrometry (Figure S3)
wild-type TTR [3] = molecular target: T1, wild-type TTR; conditions: orientation in T4-binding site; cited from earlier work

Row | SMILES | covalent interaction / boronic ester formation with binding-pocket residues (wild-type TTR [1]) | other results
1 | OB(O)c1ccc(/C=C/c2cc(O)cc(O)c2)cc1 [Compound 2, 5-[(1E)-2-(4-Boronic acid)ethenyl]-1,3-benzenediol] | did not exhibit covalent interactions | 
2 | OB(O)c1ccc(/C=C/c2cc(O)cc(O)c2)c(Cl)c1 [Compound 4, 5-[(1E)-2-(2-Chloro-4-boronic Acid)ethenyl]-1,3-benzenediol] | did not exhibit covalent interactions | 
3 | O=C(O)c1cccc(/C=C/c2ccc(O)cc2)c1 [Compound 5, 3-[(1E)-2-(4-Hydroxyphenyl)ethenyl]-benzoic Acid] |  | Kd,2 fold higher than those of stilbenes 1 and 2, respectively (wild-type TTR [2]): 3 fold
4 | O=C(O)c1cccc(/C=C/c2ccc(B(O)O)cc2)c1 [Compound 6, 3-[(1E)-2-(4-Boronic acid)ethenyl]-benzoic Acid] | did not exhibit covalent interactions | Kd,2 fold higher than those of stilbenes 1 and 2, respectively (wild-type TTR [2]): 2 fold
5 | O=C(O)c1cccc(/C=C/c2ccc(B(O)O)cc2Cl)c1 [Compound 8, 3-[(1E)-2-(2-Chloro-4-boronic Acid)ethenyl]-benzoic] | did not exhibit covalent interactions | 
6 | OB(O)c1ccc(/C=C/c2ccc(B(O)O)cc2Cl)c(Cl)c1 [Compound 10, 1,1′-(1E)-(1,2-Ethenediyl)bis[2-chloro-4-boronic acid]-benzene] |  | reversibility of binding with TTR (TTR): reversible
7 | O=C(O)c1ccc2nc(-c3cc(Cl)cc(Cl)c3)oc2c1 [Compound 12, 2-(3,5-dichlorophenyl)-6-benzoxazolecarboxylic acid] |  | binding mode (wild-type TTR [3]): forward ^d
